Results as given in US20050192279A1, “Pyridazinones as antagonists of alpha4 integrins” (priority 2004, published 2005).
Where two headings read alike, the source gives them in different places.

Tests used:
[1] = tested on: alpha 4 beta 7-positive cells; assay: Intraperitoneal Delayed Type Hypersensitivity (IP-DTH) Response; assay type: in vivo, mice; conditions: peritoneal cells 48 h after antigen challenge; for inhibition in vivo at 30 mg/kg: Mus musculus, 48 h, read-out: % Decrease in recruited α4β7 + cells
Description: Intraperitoneal Delayed Type Hypersensitivity (IP-DTH) Response. A Method for Analyzing Effects of Integrin Antagonists In Vivo
Integrin antagonists are meant to interfere with the binding or adhesion of immune cells, such as lymphocytes, monocytes and eosinophils that bear integrin receptors to counter-receptors that exist on endothelial cells in the vasculature. Among those integrin-bearing cells, cells that are positive for alpha 4 beta 7 integrin (found in the mesenteric system and in the gut), would comprise many of the cells recruited to a peritoneal antigen challenge. One can maximize the number of alpha 4 beta 7 integrin-positive cells recruited by inducing an intraperitoneal delayed type hypersensitivity response to antigen that will recruite antigen-responsive cells from the mesenteric lymph nodes. An inhibitor of alpha 4 beta 7 integrin should prevent the recruitment of these cells to the site of antigen challenge. Alpha 4 beta 7 integrin-positive cells are considered to be gut-homing, and are found in greater abundance in inflamed tissues of the GI tract and pancrea.
The antigenic challenge will induce a delayed type hypersensitivity response. In this model, animals were primed with antigen, then 7 days later were challenged intraperitoneally with the same antigen. During the ensuing 24-48 h, cells that were primed to recognize this antigen should be recruited to the challenge site. If the site is the peritoneal cavity, the recruited cells can be obtained by […] the cavity with a physiological buffer and collecting the lavage fluid.
The contribution of alpha 4 beta 7 integrin positive cells to the peritonal cavity cell population was ascertained by using flow cytometry to evaluate their relative percent in this population.
The mice were primed via intraperitoneal administration with 25 micrograms ovalbumin in a physiological buffer that may or may not contain alum as an adjuvant.
After 7 days, the mice were challenged with 25 micrograms ovalbumin via intraperitoneal administration.
Compounds were administered either orally (po), or subcutaneously (sc), either once daily or twice daily, for 2 days, starting on the day of antigen challenge.
Forty eight hours after antigen challenge, the elicited cells in the peritoneal cavity were harvested by lavaging the cavity in physiological saline or phosphate buffered saline, with calcium and magnesium salts.
The cells were washed into Staining Buffer consisting of phosphate buffered saline, 1% bovine serum albumin and 0.1% sodium azide, and resuspended to 2×10e7 cells/ml. A portion of 1×10e6 cells was deposited into a 96-well V-bottom plate for staining.
The sample of 1×10e6 cells was stained with fluorochrome-coupled antibody to alpha 4 beta 7 integrin or a primary antibody to alpha 4 beta 7 integrin followed by a secondary fluorochrome-coupled antibody. Each staining step was carried out at 4° C. for 30 to 45 min with gentle shaking, followed by 4 washes with Staining Buffer at 4° C. The cells were resuspended in 200 microliters of 1% paraformaldehyde in phosphate buffered saline. The cells were then transferred to test tubes and maintained at 4° C. until analyzed by flow cytometry to determine numbers of alpha4 beta7-postive cells.
A Becton-Dickenson FACSort (B-D instruments) was used for these studies.
Comparisons were made between numbers of alpha 4 beta 7-positive cells in samples taken from antigen-treated animals and numbers of alpha 4 beta 7-positive cells taken from antigen-treated animals administered experimental compounds.

α4β1 = target: T1, α4β1 (Homo sapiens, UniProt P05556+P13612); assay: Ramos Cell Adhesion Assay (α4β1 Mediated Adhesion/VCAM-1); assay type: cell-based; conditions: Ramos cell adhesion to hVCAM-1; read-out: α4β1 IC50
T1 construct: Ramos Cell Adhesion Assay (α4β1 Mediated Adhesion/VCAM-1); endogenous in cells; host or cells: Ramos cells
How it was run: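 Plates coated overnight at 4° C with recombinant hVCAM-1 at 4.0 μg/mL, pH 9.0, then blocked in PBS/1% BSA. Calcein AM-labeled Ramos cells added with compounds and left to adhere 1 h at room temperature; after washing, cells lysed in 1 M Tris pH 8.0/1% SDS.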

T1 sequence (P13612 34-1032): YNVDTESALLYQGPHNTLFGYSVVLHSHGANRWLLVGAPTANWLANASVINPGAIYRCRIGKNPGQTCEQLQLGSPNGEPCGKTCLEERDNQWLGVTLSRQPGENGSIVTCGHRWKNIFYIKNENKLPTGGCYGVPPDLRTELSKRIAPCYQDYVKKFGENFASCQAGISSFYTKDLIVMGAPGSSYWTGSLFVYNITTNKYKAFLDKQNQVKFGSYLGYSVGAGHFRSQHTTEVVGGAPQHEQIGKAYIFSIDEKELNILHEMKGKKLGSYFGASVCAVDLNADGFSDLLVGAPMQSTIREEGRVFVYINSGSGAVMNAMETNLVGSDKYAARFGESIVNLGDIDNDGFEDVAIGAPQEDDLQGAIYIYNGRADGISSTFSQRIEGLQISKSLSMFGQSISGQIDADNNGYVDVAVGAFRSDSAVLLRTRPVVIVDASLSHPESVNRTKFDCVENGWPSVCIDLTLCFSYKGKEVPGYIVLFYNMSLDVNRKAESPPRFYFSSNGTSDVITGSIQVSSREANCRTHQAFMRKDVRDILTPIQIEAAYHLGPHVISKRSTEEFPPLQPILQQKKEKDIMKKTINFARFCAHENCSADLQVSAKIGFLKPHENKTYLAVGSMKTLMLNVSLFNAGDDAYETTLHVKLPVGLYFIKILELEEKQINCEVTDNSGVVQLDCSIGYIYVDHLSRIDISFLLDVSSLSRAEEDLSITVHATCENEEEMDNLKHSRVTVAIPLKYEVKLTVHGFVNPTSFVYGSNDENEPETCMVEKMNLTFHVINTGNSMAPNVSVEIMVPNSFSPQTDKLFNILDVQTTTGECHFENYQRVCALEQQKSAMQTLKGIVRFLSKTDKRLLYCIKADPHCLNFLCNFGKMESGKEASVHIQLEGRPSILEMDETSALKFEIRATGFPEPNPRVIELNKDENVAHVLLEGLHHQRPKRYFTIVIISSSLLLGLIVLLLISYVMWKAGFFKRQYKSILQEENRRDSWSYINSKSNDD
T1 sequence (P05556 21-798): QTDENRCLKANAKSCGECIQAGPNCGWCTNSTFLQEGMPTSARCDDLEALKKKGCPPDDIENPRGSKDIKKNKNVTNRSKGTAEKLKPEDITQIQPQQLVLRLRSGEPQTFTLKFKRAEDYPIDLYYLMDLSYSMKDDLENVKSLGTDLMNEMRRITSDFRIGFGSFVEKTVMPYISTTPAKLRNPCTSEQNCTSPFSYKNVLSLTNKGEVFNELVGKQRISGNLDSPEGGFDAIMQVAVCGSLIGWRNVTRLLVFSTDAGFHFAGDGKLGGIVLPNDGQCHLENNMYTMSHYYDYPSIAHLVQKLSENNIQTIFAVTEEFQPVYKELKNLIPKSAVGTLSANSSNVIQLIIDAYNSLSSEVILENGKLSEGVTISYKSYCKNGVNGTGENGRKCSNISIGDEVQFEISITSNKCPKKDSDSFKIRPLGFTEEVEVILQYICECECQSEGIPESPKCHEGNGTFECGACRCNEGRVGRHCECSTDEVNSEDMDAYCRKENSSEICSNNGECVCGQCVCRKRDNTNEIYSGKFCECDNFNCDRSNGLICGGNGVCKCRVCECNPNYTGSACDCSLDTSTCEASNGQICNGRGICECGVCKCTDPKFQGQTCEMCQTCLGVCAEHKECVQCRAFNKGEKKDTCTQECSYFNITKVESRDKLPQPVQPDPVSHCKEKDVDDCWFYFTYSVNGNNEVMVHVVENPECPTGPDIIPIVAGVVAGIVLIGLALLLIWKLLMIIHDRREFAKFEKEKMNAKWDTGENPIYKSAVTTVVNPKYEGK

Cn1ncc(N)c(-c2ccc(C[C@H](NC(=O)c3c(Cl)cccc3Cl)C(=O)O)cc2)c1=O [Cpd 46] gave an inhibition in vivo at 30 mg/kg ([1]; sc, 30 mg/kg sc bid × 2) of 56.6% and an IC50 (α4β1) of 370 nM.

COc1cnn(C)c(=O)c1-c1ccc(C[C@H](NC(=O)[C@@H]2C3CCC(CC3)N2C(=O)CCc2ccccc2)C(=O)O)cc1 [Cpd 89, 3-[4-(5-Methoxy-2-methyl-3-oxo-2,3-dihydro-pyridazin-4-yl)-phenyl]-2(S)-{[2-(3-phenyl-propionyl)-2-aza-bicyclo[2.2.2]octane-3(S)-carbonyl]-amino}-propionic acid] gave an IC50 (α4β1) of 39.7 nM.

With COC(=O)[C@H](Cc1ccc(-c2c(OC)cnn(C)c2=O)cc1)NC(=O)c1c(Cl)cccc1Cl [Cpd 151] the IC50 (α4β1) was over 5000 nM.

Work on O=C(N[C@@H](Cc1ccc(-c2c(OCC3CC3)cnn(CCO)c2=O)cc1)C(=O)O)c1c(Cl)cccc1Cl [Cpd 35] yielded an inhibition in vivo at 30 mg/kg ([1]; sc, 30 mg/kg sc bid × 2) of 49.8% and an IC50 (α4β1) of 342 nM.

With O=C(N[C@@H](Cc1ccc(-c2c(OCc3cccnc3)cnn(CCO)c2=O)cc1)C(=O)O)c1c(Cl)cccc1Cl [Cpd 30] the inhibition in vivo at 30 mg/kg ([1]; sc, 30 mg/kg sc bid × 2) was 37.4% and the IC50 (α4β1) was 284 nM.

For CNc1cnn(CC(C)=O)c(=O)c1-c1ccc(C[C@H](NC(=O)c2c(Cl)cccc2Cl)C(=O)O)cc1 [Cpd 18], the “% Decrease in recruited α4β7 + cells” value ([1]; 30 mg/kg sc bid × 2) was 52.8% and the IC50 (α4β1) was over 1000 nM.

COc1cnn(CCO)c(=O)c1-c1ccc(C[C@H](NC(=O)OC(C)(C)C)C(=O)O)cc1 [Cpd 120] was tested, and the inhibition in vivo at 30 mg/kg ([1]; po, 30 mg/kg po bid × 2) was 25.4%.

O=C(N[C@@H](Cc1ccc(-c2c(N3CCOCC3)cnn(CCO)c2=O)cc1)C(=O)O)c1c(Cl)cccc1Cl [Cpd 61] was tested, and the inhibition in vivo at 30 mg/kg ([1]; sc, 30 mg/kg sc bid × 2) was 37.4% and the IC50 (α4β1) was 221 nM.

For COc1cnn(CCO)c(=O)c1-c1ccc(C[C@H](NC(=O)c2c(Cl)cccc2Cl)C(=O)O)cc1 [Cpd 15, (S)-2-(2,6-Dichloro-benzoylamino)-3{4-[2-(2-hydroxy-ethyl)-5-methoxy-3-oxo-2,3-dihydro-pyridazin-4-yl]-phenyl}-propionic acid], the inhibition in vivo at 30 mg/kg ([1]; sc, 30 mg/kg sc bid × 2) was 10.4% and the IC50 (α4β1) was 125 nM.

COc1cnn(CCN2CCOCC2)c(=O)c1-c1ccc(C[C@H](NC(=O)c2c(Cl)cccc2Cl)C(=O)O)cc1 [Cpd 10] gave an inhibition in vivo at 30 mg/kg ([1]; sc, 30 mg/kg sc bid × 2) of 56.3% and an IC50 (α4β1) of 363 nM.

In the case of COc1cnn(CCO)c(=O)c1-c1ccc(C[C@H](NC(=O)c2c(Cl)cccc2Cl)C(=O)OCCO)cc1 [Cpd 199], the “% Decrease in recruited α4β7 + cells” value ([1]; 30 mg/kg po bid × 2) is reported as 16.04% and the IC50 (α4β1) is reported as over 5000 nM.

Molecule COc1cnn(CC(=O)O)c(=O)c1-c1ccc(C[C@H](NC(=O)c2c(Cl)cccc2Cl)C(=O)O)cc1 [Cpd 11] has an inhibition in vivo at 30 mg/kg ([1]; sc, 30 mg/kg sc bid × 2) of 70.5% and an IC50 (α4β1) of 842 nM.

Molecule Cn1ncc(N)c(-c2ccc(C[C@H](NC(=O)c3c(Cl)cccc3Cl)C(=O)OCCO)cc2)c1=O [Cpd 232] has an inhibition in vivo at 30 mg/kg ([1]; po, 30 mg/kg po bid × 2) of 47.8% and an IC50 (α4β1) of over 5000 nM.

Work on COc1cnn(CC(N)=O)c(=O)c1-c1ccc(C[C@H](NC(=O)c2c(Cl)cccc2Cl)C(=O)O)cc1 [Cpd 5] yielded an inhibition in vivo at 30 mg/kg ([1]; sc, 30 mg/kg sc bid × 2) of 53.4% and an IC50 (α4β1) of 307 nM.

With COc1cnn(C)c(=O)c1-c1ccc(C[C@H](NC(=O)c2c(Cl)cccc2Cl)C(=O)OCC(C)(C)C)cc1 [Cpd 207] the inhibition in vivo at 30 mg/kg ([1]; po, 30 mg/kg po bid × 2) was 25.6% and the IC50 (α4β1) was over 5000 nM.
